# Results reported in ChEMBL document CHEMBL1201862, “PubChem BioAssay data set” (2004).
# The source made the active and inactive calls.
# Assays:
# [1] = biological target: T1, Heat shock factor protein 1 (Mus musculus, UniProt P38532); test: decrease of HSF1-responsive luciferase luminescence – cell-based, NIH3T3, dose retest, confirmation (AID 2382); assay type: functional;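 note: NIH3T3 fibroblasts with HSF1-driven luciferase reporter stressed by proteasome inhibitor MG132; luminescence from HSF1-driven luciferase expression after 8 hours of MG132 stress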
# T1 sequence (P38532 whole entry): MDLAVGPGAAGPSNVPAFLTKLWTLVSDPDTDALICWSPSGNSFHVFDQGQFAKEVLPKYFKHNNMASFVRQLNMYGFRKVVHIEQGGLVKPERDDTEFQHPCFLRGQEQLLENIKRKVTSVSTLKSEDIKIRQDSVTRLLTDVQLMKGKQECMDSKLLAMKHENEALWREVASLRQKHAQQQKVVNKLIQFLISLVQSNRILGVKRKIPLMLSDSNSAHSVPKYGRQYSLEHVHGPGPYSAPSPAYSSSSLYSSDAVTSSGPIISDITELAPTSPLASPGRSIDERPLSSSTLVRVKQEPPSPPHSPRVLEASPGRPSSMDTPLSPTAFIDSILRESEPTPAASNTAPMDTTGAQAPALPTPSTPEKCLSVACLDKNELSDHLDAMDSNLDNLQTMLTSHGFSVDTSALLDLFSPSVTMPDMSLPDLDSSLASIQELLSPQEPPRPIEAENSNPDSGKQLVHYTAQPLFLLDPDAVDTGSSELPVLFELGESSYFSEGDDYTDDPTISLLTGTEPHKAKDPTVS
# [2] = biological target: COUP transcription factor 2 (Homo sapiens, UniProt P24468); test: Luminescence-based cell-based high throughput dose response assay to identify inhibitors of COUP-TFII (NR2F2).; assay type: functional;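 note: HEK293 cells transiently cotransfected with COUP-TFII expression vector and reporter; luciferase reporter luminescence driven by COUP-TFII from the pX2-168 reporter plasmid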
# [3] = biological target: T2, Disintegrin and metalloproteinase domain-containing protein 17 (Homo sapiens, UniProt P78536); test: inhibition of ADAM17 substrate cleavage – biochemical, quenched FRET substrate, counter-screen for ADAM10 exosite inhibitor project, dose response (AID 743253)
# Major prion protein = Major prion protein (Homo sapiens, UniProt P04156); assay type: functional, cell-based
# [4] = biological target: Kappa-type opioid receptor (Homo sapiens, UniProt P41145); test: Late-stage fluorescence-based cell-based dose response assay for antagonists of kappa opioid receptor 1 (OPRK1).; assay type: functional
# Mu-type opioid receptor = Mu-type opioid receptor (Homo sapiens, UniProt P35372); test: Late-stage results from the probe development effort to identify antagonists of OPRK1: luminescence-based cell-based dose response OPRM1 counterscreen, Set 2.; assay type: functional
# [5] = biological target: Delta-type opioid receptor (Homo sapiens, UniProt P41143); test: Late-stage results from the probe development effort to identify antagonists of OPRK1: fluorescence-based cell-based dose response OPRD1 counterscreen, Set 2.; assay type: functional
# [6] = biological target: Sphingosine 1-phosphate receptor 1 (Homo sapiens, UniProt P21453); test: Late-stage counterscreen for antagonists of kappa opioid receptor 1 (OPRK1): fluorescence-based cell-based dose response assay to identify antagonists of Sphingosine 1-Phosphate Receptor 1 (S1P1).; assay type: functional
# [7] = luciferase reporter signal suppression in cells – H4 neuroglioma cells, luminescence, dose response (AID 1990); assay type: functional, cell-based
# [8] = Luminescence Cell-Based Dose Response HTS to Identify Inhibitors of 5'UTR Stem-Loop Driven Prion Protein mRNA Translation in H4 Neuroglioblastoma Cells. [Related pubchem assays: 1827 (Project Summary), 1813 (Primary HTS)]; assay type: functional
# [9] = alpha-synuclein stem-loop luciferase translation blockers – H4 neuroglioma cells, luminescence, confirmation (AID 1988); assay type: functional, cell-based
# [10] = HEK-293T viability loss after treatment – luminescence, T-cell screen hits, cytotoxicity control for TCR NF-kB inhibitor project, dose response (AID 489026); assay type: functional, cell-based;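 note: cells exposed to compound about 14 hours before the viability readout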
# [11] = viability loss in HepG2 liver cells – cell-based, ATP luminescence, cherry-pick, set 6, cytotoxicity control, dose response (AID 1053125); assay type: functional
# [12] = toxicity toward HEK293 cells – cell-based, dry powder samples, cytotoxicity control, dose response (AID 720567); assay type: functional
# [13] = biological target: NAD-dependent protein deacylase sirtuin-5, mitochondrial (Homo sapiens, UniProt Q9NXA8); test: sirtuin-5 deacylation blockers, concentration series – biochemical, fluorescence imaging, cherry-pick, set 5, dose response (AID 720591);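 note: desuccinylation of succinyl peptide AMC substrate read as fluorescence after trypsin release; potency of inhibitors that lower fluorescence and may act on trypsin instead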
# [14] = biological target: T2, Disintegrin and metalloproteinase domain-containing protein 17; test: exosite inhibitors of ADAM17, dose response, biochemical (AID 743260)
# [15] = inhibition of ADAM10 peptide cleavage – biochemical, FRET peptide substrate, recombinant human ADAM10, selectivity assay for ADAM17 exosite inhibitor project, dose response (AID 743259);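 note: ADAM10 enzyme cleaving a FRET peptide substrate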
# [16] = YAP1 overexpression rescue of CTGF inhibition – DLD1 cells, RT-qPCR, cherry-pick, mechanism study for YAP1 pathway inhibitor project, dose response (AID 1053127); assay type: functional, cell-based; conditions: DLD-1
# [17] = A549 cell cytotoxicity, dose response, cytotoxicity control, plate reader, cherry-pick, antagonist series (AID 743412); assay type: functional, cell-based
# [18] = toxicity toward HepG2 liver cells – cell-based, plate reader, cherry-pick, antagonist series, cytotoxicity control, dose response (AID 743416); assay type: functional
# [19] = blockers of bursicon-stimulated LGR2 cAMP reporter – cell-based, HEK293, CRE-luciferase reporter, cherry pick, set 2, dose response (AID 743343); assay type: functional;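 note: transfected cells were stimulated with diluted bursicon conditioned medium after compound addition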
# [20] = blockade of melanocortin 4 receptor signaling – cell-based, plate reader, cherry pick, counter-screen for LGR2 antagonist project, dose response (AID 743444); assay type: functional;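 note: transfected HEK 293 cells stimulated with alpha-MSH peptide; potency of inhibitors of the alpha-MSH evoked signal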
# [21] = viability loss in HEK293 cells – cell-based, plate reader, cherry-picked samples, cytotoxicity control, dose response (AID 743446); assay type: functional
# Paired box protein Pax-8 = Paired box protein Pax-8 (Homo sapiens, UniProt Q06710); test: PAX8 transcriptional activity inhibition in RMG-I – RMG-I cells, luciferase, cherry-pick, dose response (AID 687027); assay type: functional, cell-based;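 note: luciferase reporter driven by Pax8 target thyroperoxidase promoter measured by SteadyGlo luminescence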
# [22] = toxicity toward immortalized ovarian surface epithelium – cell-based, plate reader, dry powder samples, cytotoxicity control for PAX8 inhibitor project, dose response (AID 743045); assay type: functional
# [23] = OVCAR-3 cell viability loss – plate reader, dry powder samples, PAX8 inhibitor project, dose response (AID 743044); assay type: functional, cell-based
# [24] = OVCAR8 cell viability loss – plate reader, dry powder samples, PAX8 project, dose response (AID 743197); assay type: functional, cell-based; conditions: OVCAR-8
# [25] = IGROV1 cell killing – plate reader, dry powder samples, PAX8 inhibitor project, dose response (AID 743043); assay type: functional, cell-based; conditions: IGROV-1
# [26] = blockers of HIV-1 envelope-mediated cell-cell fusion – cherry-pick, dose response (AID 652057); assay type: functional, cell-based
# [27] = HIV-1 AD8 envelope cell-cell fusion blockers – cherry-pick, dose response (AID 652062); assay type: functional, cell-based;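 note: luciferase signal from cell-cell fusion driven by HIV-1 clade B AD8 Env; potency is for inhibitors of fusion seen as a drop in luminescence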
# [28] = CTGF mRNA reduction in DLD1 cells – cell-based, DLD1 colon cancer, RT-qPCR, cherry-pick, dose response (AID 1053122); assay type: functional; conditions: Cancer cell lines
# [29] = P. falciparum Dd2 growth inhibitors, dose response, SYBR Green, cherry-picked samples (AID 1159567); assay type: functional, cell-based
# [30] = kidney cell line viability loss – HEK293T, luminescence plate reader, powder samples, set 4, cytotoxicity control, dose response (AID 651863); assay type: functional, cell-based; conditions: HEK293
# [31] = biological target: Metabotropic glutamate receptor 5 (Rattus norvegicus, UniProt P31424); test: Identification of a glycine sulfonamide based non-MPEP site positive allosteric potentiator (PAM) of mGlu5 (calcium_assay).; assay type: functional
# [32] = human cervical cancer cell viability loss – 24 h, plate reader, dry powder, cytotoxicity control, dose response (AID 686928); assay type: functional, cell-based; conditions: HeLa
# [33] = ATP-based viability loss in HepG2 cells – cell-based, CellTiter-Glo luminescence, dry powder, set 3, cytotoxicity control, dose response (AID 720594); assay type: functional
# [34] = ATP-based viability loss in HEK293T cells – cell-based, CellTiter-Glo luminescence, dry powder, set 2, cytotoxicity control, dose response (AID 720595); assay type: functional; conditions: HEK293
# [35] = ATP-based viability loss in HeLa cells – cell-based, CellTiter-Glo luminescence, dry powder, set 2, cytotoxicity control, dose response (AID 720593); assay type: functional
# [36] = Luminescence-based cell-based high throughput dose response assay to identify activators of the DAF-12 from the parasite S. stercoralis (ssDAF-12).; assay type: functional
# [37] = biological target: T3, Oxysterols receptor LXR-beta (Homo sapiens, UniProt P55055); test: LXR agonists, Gal4 luciferase reporter, dose response, counter-screen for ssDAF-12 agonist project, cell-based, luminescence, HEK293, S. stercoralis campaign (AID 720737); assay type: functional; conditions: read-out: IC50 (the source's name)
# T3 sequence (P55055 whole entry): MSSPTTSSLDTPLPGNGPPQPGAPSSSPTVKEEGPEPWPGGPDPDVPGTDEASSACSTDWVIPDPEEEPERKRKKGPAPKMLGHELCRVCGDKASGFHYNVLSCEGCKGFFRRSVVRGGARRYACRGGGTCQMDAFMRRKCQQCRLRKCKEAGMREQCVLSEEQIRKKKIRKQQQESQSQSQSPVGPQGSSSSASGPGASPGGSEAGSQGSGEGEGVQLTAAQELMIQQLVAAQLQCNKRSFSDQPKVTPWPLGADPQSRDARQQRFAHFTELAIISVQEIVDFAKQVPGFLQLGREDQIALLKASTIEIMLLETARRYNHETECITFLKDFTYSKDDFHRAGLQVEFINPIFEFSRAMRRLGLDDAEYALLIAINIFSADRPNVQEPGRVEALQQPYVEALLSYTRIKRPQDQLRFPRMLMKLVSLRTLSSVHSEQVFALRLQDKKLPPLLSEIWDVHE
# [38] = MITF Orthogonal Assay: SK-MEL-5 CTG Assay Measured in Cell-Based System Using Plate Reader - 2084-02_Inhibitor_Dose_DryPowder_Activity_Set7.; assay type: functional
# [39] = MITF: Counter assay: A375 proliferation Measured in Cell-Based System Using Plate Reader - 2084-03_Inhibitor_Dose_DryPowder_Activity_Set8.; assay type: functional; conditions: A-375
# [40] = inhibitors of TRPM1-promoter reporter in SK-MEL-5 – cell-based, luciferase, dry powder, set 8, MITF inhibitor project, dose response (AID 624430); assay type: functional
compound,measurement,setting,value
CC(C)(C)c1ccc(-c2cc(-c3ccccc3O)n[nH]2)cc1,EC50,[1],1.81 µM (active)
same,IC50,[2],47.8 µM (inactive)
same,IC50,[3],> 69.6 µM (inactive)
Cc1onc(-c2c(F)cccc2Cl)c1C(=O)Nc1nnc(C(F)(F)F)s1,IC50,Major prion protein,2.79 µM (active)
same,IC50,cells,> 138 µM (inactive)
CN(C)c1cc(NC(=O)Nc2ccccc2)c2ccccc2n1,IC50,[4],32.6 µM (inactive)
same,IC50,Mu-type opioid receptor,> 50 µM (inactive)
same,IC50,[5],69.5 µM (inactive)
same,IC50,[6],40 µM (inactive)
Cc1ccc(NC(=O)Nc2ccnc(-c3cccnc3)n2)cc1,EC50,[7],0.983 µM (active)
same,EC50,[8],> 120 µM (not active)
same,EC50,[9],0.87 µM (active)
same,IC50,[10],27.8 µM (inactive)
same,AC50,[11],> 52 µM (inactive)
Cc1cccc(C)c1OCCNC(=O)C(=O)NCc1ccco1,AC50,[12],> 30 µM (inactive)
O=C(Cn1nc(-c2ccc(Cl)cc2)ccc1=O)NCC1CCCO1 (stereo not drawn),EC50,[1],> 195 µM (not active)
same,AC50,[13],> 30 µM (inactive)
C[C@H](CO)N1C[C@H](C)[C@H](CN(C)S(=O)(=O)c2cccs2)Oc2ccc(NC(=O)Nc3ccc4c(c3)OCO4)cc2CC1=O,IC50,[14],> 69.5 µM (inactive)
same,IC50,[15],13.8 µM (inactive)
C[C@@H]1CN([C@@H](C)CO)C(=O)CCCn2nncc2CO[C@@H]1CN(C)C(=O)c1cc(-c2ccccc2)on1,AC50,[16],> 26 µM (inactive)
CCN1CCN(Cc2ccc(NC(=O)c3cccc(-c4ccc5nc(NC(=O)C6CC6)sc5n4)c3)cc2C(F)(F)F)CC1,AC50,[17],5.08 µM (active)
same,AC50,[18],3.22 µM (active)
same,AC50,[19],5.27 µM (active)
same,AC50,[20],2.18 µM (active)
same,AC50,[21],8.7 µM (active)
CN1c2ccc(-c3ccccc3)cc2[C@H]2[C@H](CCN2C(=O)NC2CCCCC2)[C@@H]1CO,AC50,Paired box protein Pax-8,11.5 µM (active)
same,AC50,[22],53.9 µM (active)
same,AC50,[23],23.4 µM (active)
same,AC50,[24],25.3 µM (active)
C[C@@H]1CN([C@@H](C)CO)C(=O)Cc2cc(NS(=O)(=O)c3ccc(Cl)cc3)ccc2O[C@H]1CN(C)Cc1ccc(Oc2ccccc2)cc1,AC50,Paired box protein Pax-8,6.27 µM (active)
same,AC50,[23],22.5 µM (active)
same,AC50,[25],25.9 µM (active)
same,AC50,[24],26.7 µM (active)
N#C[C@@H]1[C@H](c2ccc(-c3cccc(F)c3)cc2)[C@H](CO)N1C(=O)NC1CCCC1,AC50,[26],39.5 µM (active)
same,AC50,[27],0.768 µM (active)
same,AC50,[28],> 26 µM (inactive)
same,AC50,[29],2.84 µM (active)
COC(=O)[C@@H]1CCCC[C@@H]1C(=O)N1CCc2ccccc2[C@H]1CN1C(=O)c2ccccc2C1=O,AC50,[30],> 52 µM (inactive)
CS(=O)(=O)N(CC(=O)NCC(F)(F)F)c1ccccc1Cl,EC50,[31],10 µM (inconclusive)
CCCCCCCCCC(=O)[C@@H](O)CC.CCCCCCCCCC(=O)[C@H](O)CC,AC50,[32],> 200 µM (inactive)
CCn1nc(-c2cccnc2)nc2c(=O)n(C)c(=O)nc1-2,AC50,[33],3.24 µM (active)
same,AC50,[34],16.4 µM (active)
same,AC50,[35],4.34 µM (active)
COC(=O)[C@]12C=CCN1[C@H](c1ccc(OC)c(OC)c1)c1c(c3ccccc3n1S(=O)(=O)c1ccc(C)cc1)C2,IC50,[36],> 67.5 µM (inactive)
same,EC50,[37],> 67.5 µM (inactive)
CC(C)N1CCN(C2=C(Nc3cccc(Br)c3)C(=O)c3ccccc3C2=O)CC1,AC50,[38],11.5 µM (active)
same,AC50,[39],48.5 µM (active)
same,AC50,[40],2.52 µM (active)
